From patent US9624268B2, “Oral peptide inhibitors of interleukin-23 receptor and their use to treat inflammatory bowel diseases” (Protagonist Therapeutics, Inc., priority 2014, dated 2017) come the findings set out here.

The test relates to Sprague Dawley rats with DSS-induced colitis. Put plainly: Rat colitis model: 9 days of 3% DSS-containing drinking water. The class given is in vivo. The settings on record: 100 mg/kg PO, QD.

Description: Rat Colitis Model: 9 Days of 3% DSS-Containing Drinking Water
In this model, colitis was induced in SD rats by 9 days of ad lib exposure to drinking water containing 3% DSS. The disease activity index (DAI) score and ratio of colon weight:colon length were compared between three study groups (n=6 rats/group): vehicle, 3% DSS, and 3% DSS with positive control (sulfasalazine administered at 100 mg/kg PO, QD).
Acute colitis was induced by feeding female Sprague Dawley rats with 3% (wt/vol) DSS dissolved in drinking water. […] To quantify colitis with clinical activity, disease activity index (DAI) was determined daily for each animal as an average of three parameters: body weight change (scale 0-3), stool consistency (scale 0-3) and hemoccult blood (scale 0-3), as shown in Table 15. At necropsy, the entire colon was removed from the cecum to the rectum. The colon was measured for length, flushed with PBS to remove feces, weighed, and opened longitudinally to determine macroscopic score.

As to `O=C(O)c1cc(/N=N/c2ccc(S(=O)(=O)Nc3ccccn3)cc2)ccc1O` [sulfasalazine], the “terminal ratio of colon weight:colon length, difference with and without treatment” value is on record as “significant”. For the same compound, the “disease activity index (DAI) score compared to DSS alone” value (from Day 5) is recorded as “attenuated the disease score”.
